Experimental data: the NIST ThermoML archive (doi:10.1021/acs.jced.6b00221)

Tests used:
[1] = Liquid, Ebulliometric method (Recirculating still)
[2] = Boiling temperature at pressure P; settings: Liquid, Ebulliometric method (Recirculating still)

CC(=O)OCCC(C)C [3-methylbutyl ethanoate]
Settings | Boiling temperature at pressure P [°C] | vapor or sublimation pressure [kPa]
[1], 413.99 K | – | 100
[2], 20 kPa | 92.14 | –
[2], 29.98 kPa | 102.91 | –
[2], 40.01 kPa | 111.16 | –
[2], 49.99 kPa | 117.92 | –
[2], 60 kPa | 123.61 | –
[2], 70 kPa | 128.57 | –
[2], 80.01 kPa | 133.03 | –
[2], 90 kPa | 137.09 | –
[2], 100.01 kPa | 140.8 | –
[2], 110 kPa | 144.00 | –
[2], 119.99 kPa | 147.28 | –
[2], 130 kPa | 150.31 | –
[2], 139.99 kPa | 153.18 | –
[2], 149.99 kPa | 155.90 | –
[2], 160.01 kPa | 158.46 | –

CCOC(C)=O [ethyl acetate]
Settings | Boiling temperature at pressure P [°C] | vapor or sublimation pressure [kPa]
[1], 330.41 K | – | 50
[1], 349.7 K | – | 100
[1], 362.48 K | – | 150
[2], 54.99 kPa | 59.67 | –
[2], 59.98 kPa | 62.01 | –
[2], 70 kPa | 66.27 | –
[2], 75 kPa | 67.77 | –
[2], 80 kPa | 70.03 | –
[2], 84.99 kPa | 71.78 | –
[2], 89.91 kPa | 73.43 | –
[2], 95.01 kPa | 75.1 | –
[2], 101.33 kPa | 77.01 | –
[2], 104.99 kPa | 78.11 | –
[2], 109.98 kPa | 79.52 | –
[2], 119.9 kPa | 82.21 | –
[2], 124.98 kPa | 83.47 | –
[2], 129.93 kPa | 84.71 | –
[2], 134.95 kPa | 85.93 | –
[2], 139.96 kPa | 87.09 | –
[2], 149.95 kPa | 89.33 | –
[2], 154.97 kPa | 90.41 | –
[2], 159.96 kPa | 91.5 | –
[2], 164.99 kPa | 92.49 | –
[2], 174.99 kPa | 94.46 | –
[2], 180 kPa | 95.43 | –
[2], 185 kPa | 96.4 | –

CC(=O)OCC(C)C [2-methylpropyl ethanoate]
Settings | Boiling temperature at pressure P [°C] | vapor or sublimation pressure [kPa]
[1], 367.51 K | – | 50
[1], 388.93 K | – | 100
[1], 389.37 K | – | 100
[1], 403.22 K | – | 150
[1], 403.64 K | – | 150
[2], 39.99 kPa | 88 | –
[2], 49.98 kPa | 94.26 | –
[2], 59.99 kPa | 99.74 | –
[2], 70 kPa | 104.24 | –
[2], 80 kPa | 108.43 | –
[2], 90 kPa | 112.39 | –
[2], 100 kPa | 116.22 | –
[2], 110 kPa | 119.20 | –
[2], 120 kPa | 122.11 | –
[2], 130 kPa | 125.01 | –
[2], 140 kPa | 127.69 | –
[2], 150 kPa | 130.49 | –
